“Also recorded” adds a separate entry of the source.
Tests used:
[1] = test system: F2 individuals derived from a cross of ML0831266-03093 and ML0831265-01493; assay: Mesotrione herbicide bioassays on segregating F2 population; assay type: in vivo, rice
Experimental: The mesotrione tolerant line ML0831266-03093 is tolerant to rates of 420 gm ai/ha and even a dual application of mesotrione first at a rate of 105 gm ai/ha followed three weeks later by an application of 630 gm ai/ha. […] The cross is made and the resulting F1 seeds are harvested, planted, and allowed to self to produce a F2 population. The F2 population is grown and tissue is collected from individual plants. Each F2 plant and parental lines are tested with a set of 192 SNP markers identified as being polymorphic between the two mutant lines ML0831266-03093 and ML0831265-01493. The set of polymorphic markers was identified as evenly spaced across the rice genome after testing both parental lines with a set of 796 SNP markers. All 192 markers including two found with linkage to target traits were selected from the 44 k SNP set described by Zhao et al. 2011.
Seedlings of size 3 to 4 leaves are sprayed with mesotrione herbicide. In one set of 89 plants mesotrione is first applied at 105 gm ai/ha killing 23 plants. Both the mutant line control ML0831266-03093 and the unmutated line P1003 survived the herbicide application while the unmutated line R0146 was killed. The surviving plants including some additional plants making a total of 95 are then sprayed with another treatment of mesotrione at a rate of 630 gm ai/ha killing or injuring 67 while 28 survived. (FIG. 23) The surviving ratio of plants to those killed or injured fits a one quarter ratio with a chi squared value of 1.03, well within the expected for a single recessive gene. Another set of F2 individuals of size 78 individuals are sprayed with a single application of mesotrione herbicide at a rate of 420 gm ai/ha resulting in 26 plants surviving also fitting in the expected one quarter ratio for a single recessive gene with a chi square value of 2.88 (Table 2).

line PL1214418M2-73009 = assay: Mesotrione trait tolerance trial; assay type: in vivo, rice
Experimental: Two trials were conducted to measure recovery of tolerance to both ACCase and HPPD herbicides in the new line PL1214418M2-73009. Recovery of tolerance in the line combining the two traits will illustrate that the traits are heritable and can be used to produce new varieties and hybrids carrying herbicide resistance. These trials are important as often times it is difficult to recover complex QTLs for quantitative traits or in some cases a traits response is dependent upon the genetic background. In the first trail the lines resistance to mesotrione (HPPD herbicide) was evaluated by planting line PL1214418M2-73009, the HPPD resistant line ML0831266-03093 and wild-type rice line P1003 and R0146 in plots (5 feet×10 feet). […]
During the breeding process to develop new lines (PL1214418M2-80048 and PL1214418M2-73009) with resistance/tolerance to HPPD and ACCase herbicides, two other lines were also investigated to determine the contribution of the HPPD tolerance mutation and the HPPD tolerance native gene. […] The tolerance effect of each gene was measured by growing the lines in single rows including the newly developed line PL1214418M2-73009 that carries both the HPPD tolerance from the mutation and the non-induced tolerance, the HPPD tolerant line ML0831266-0309, and the non-induced parent line P1003. […]

[2] = one application at 105 gai/ha followed by second application of 630 gai/ha
[3] = single application of mesotrione at 105 gai/ha
[4] = single application of mesotrione at 420 gai/ha

CS(=O)(=O)c1ccc(C(=O)C2C(=O)CCCC2=O)c([N+](=O)[O-])c1 [mesotrione]
number of susceptible plants, observed [1, 2]: 67 plants | number of tolerant plants, observed [1, 2]: 28 plants | number of susceptible plants, observed [1, 3]: 23 plants | number of tolerant plants, observed [1, 3]: 64 plants | number of susceptible plants, observed [1, 4]: 52 plants | number of tolerant plants, observed [1, 4]: 26 plants | tolerance to mesotrione compared with the original HPPD tolerant line ML0831266-03093 (line PL1214418M2-73009; 0.5x to 4x of the labeled rate 210 gmai/ha): equivalent tolerance; also recorded: the same response | tolerance to mesotrione (line PL1214418M2-73009; in vivo): tolerance

— US9994862B2, “Rice resistant to HPPD and ACCase inhibiting herbicides” (priority 2011, dated 2018)
